Data from patent publication US9546194B2, “Aminosteroids for the treatment of a PTP1B associated disease” (Ohr Pharmaceutical Inc., priority 2012, dated 2017).

Tests used:
[1] = biological target: T1, full length tyrosine phosphatase PTP1B (Homo sapiens, UniProt P18031); test: Inhibition of PTP1B (pNPP hydrolysis, absorbance at 405 nm); format: biochemical; conditions: 5 μM aminosteroid analogue; pNPP substrate; read-out: PTP1B % Inhib. at (5 μM)
T1 construct: purchased
T1 sequence (P18031 1-435): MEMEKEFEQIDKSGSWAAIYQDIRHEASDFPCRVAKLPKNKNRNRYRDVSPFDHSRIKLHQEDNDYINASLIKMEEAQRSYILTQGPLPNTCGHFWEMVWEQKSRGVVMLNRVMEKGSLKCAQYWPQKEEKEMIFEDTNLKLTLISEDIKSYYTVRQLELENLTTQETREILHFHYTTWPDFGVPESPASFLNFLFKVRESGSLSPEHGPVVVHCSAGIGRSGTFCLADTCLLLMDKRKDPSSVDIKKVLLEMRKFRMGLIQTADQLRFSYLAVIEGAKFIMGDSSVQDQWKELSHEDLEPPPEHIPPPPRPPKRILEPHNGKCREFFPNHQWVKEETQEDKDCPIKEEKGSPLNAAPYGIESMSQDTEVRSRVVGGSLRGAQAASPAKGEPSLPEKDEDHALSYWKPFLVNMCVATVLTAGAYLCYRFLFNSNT
Description: (§1) The aminosteroid analogues were tested for inhibition against the commercially available full length tyrosine phosphatase PTP1B. The ability of each analogue to inhibit the activity of PTP1B was measured in the presence of 5 μM of the aminosteroid analogue. The assay uses para-nitro-phenyl phosphate (pNPP), a non-specific substrate to assess phosphatase activity. Phosphatase activity was based on the ability of PTP1B to catalyze the hydrolysis of pNPP to p-nitrophenol (pNP).

[2] = test system: ob/ob (Lep^ob) mouse; test: Oral glucose tolerance test (OGTT) in ob/ob mouse; format: in vivo; conditions: ob/ob mice; for change in vivo: Mus musculus, 336 h, 5 or 10 mg/kg ip every 3 days, 4 doses, OGTT study day 14, 1.5 g/kg oral glucose, 0-120 min, read-out: AbAUC % Change From Saline; for reduction in AbAUC compared to saline control (significance): OGTT study day 14, p<0.05
Description: (§2) To determine in vivo efficacy of the aminosteroid analogues an ob/ob (Lep^ob) mouse model was used. Ob/ob mice are extensively used for screening of antidiabetic and/or anti-obesity agents. Ob/ob mice were treated with either saline or 5 or 10 mg/kg aminosteroid analogue every 3 days for a total of 4 doses via ip injection. Body weight, glucose tolerance and fasting blood glucose levels were measured for each group during the study. Each group had at least an N of 4 animals. All reagents and lab animals are commercially available.
On study day 14, an oral glucose tolerance test (OGTT) was performed to assess glucose tolerance. At time 0, an oral glucose challenge (1.5 g/kg) was administered by oral gavage. At time points 0, 15, 30, 60, 90, and 120 min post glucose load, 25 μl of whole blood was withdrawn from the tail vein of the animal and the glucose level was measured using a glucose analyzer. The glucose concentration vs time was plotted and the above baseline area under the curve (AbAUC) of the glucose excursion time curve was determined using trapezoidal rule analyses.

[3] = test system: ob/ob (Lep^ob) mouse; test: Fasting blood glucose (FBG) in ob/ob mouse; format: in vivo; conditions: ob/ob mice; 5 or 10 mg/kg ip every 3 days, 4 doses; study day 14 after overnight fast
Description: as §2
On study day 13, all animal groups were fasted overnight. On study day 14, 25 μL of whole blood was collected and analyzed for the glucose level (mg/dL) using a glucose analyzer.

[4] = Body weight change in ob/ob mouse; format: in vivo; conditions: ob/ob mice; 5 or 10 mg/kg ip every 3 days, 4 doses; % change in body weight vs study day 0, up to 30 days
Description: as §2
Starting at study day 0, body weight measurements were taken every day for each group for up to 30 days. Percent change in body weight was calculated as the fractional response of body weight on study day X over the original body weight on study day 0.

[5] = biological target: T2, full length TCPTP (Homo sapiens, UniProt P17706); test: Inhibition of TCPTP (pNPP hydrolysis, same manner as PTP1B assay); format: biochemical; conditions: 200 μM inhibitor; pNPP substrate; read-out: TCPTP % Inhib. at (200 μM)
T2 construct: except full length TCPTP was used as the enzyme
T2 sequence (P17706 1-415): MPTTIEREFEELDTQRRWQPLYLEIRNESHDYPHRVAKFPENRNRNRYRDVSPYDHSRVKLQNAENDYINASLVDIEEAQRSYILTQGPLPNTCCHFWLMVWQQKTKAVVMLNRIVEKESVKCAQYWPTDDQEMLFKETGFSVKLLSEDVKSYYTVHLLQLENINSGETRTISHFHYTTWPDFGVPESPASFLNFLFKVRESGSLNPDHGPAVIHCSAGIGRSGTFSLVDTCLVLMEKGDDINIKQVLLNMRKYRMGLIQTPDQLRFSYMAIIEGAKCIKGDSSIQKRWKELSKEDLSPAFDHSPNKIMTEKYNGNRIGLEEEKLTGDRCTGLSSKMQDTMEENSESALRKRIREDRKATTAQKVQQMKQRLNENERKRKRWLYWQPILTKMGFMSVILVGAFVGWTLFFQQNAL
Description: as §1
The aminosteroid analogues were also tested for their ability to inhibit the tyrosine phosphatase TCPTP as an indication of their potential toxicity by the inhibition of the immune response. The TCPTP inhibition assay was done in the same manner as the PTP1B assay except full length TCPTP was used as the enzyme and the inhibitor was at a concentration of 200 μM. The results of the TCPTP inhibition assays are shown in Table 1, column 4 and show three compounds that inhibit TCPTP less than 50% even at a […] greater concentration.

| Compound | inhibition at 5 µM [1] [%] | inhibition at 200 µM [5] [%] | further results |
| --- | --- | --- | --- |
| CC(C)[C@@H](CC[C@@H](C)[C@H]1CC[C@H]2[C@@H]3[C@H](O)C[C@H]4C[C@@H](NCCCNCCCCNCCCN)CC[C@]4(C)[C@H]3CC[C@]12C)OS(=O)(=O)O [MSI-1436, reference compound] | 54 |  | change in vivo [2]: -55.9%; FBG % Change From Saline [3]: −51.3%; % BW Nader [4]: −52.6% |
| CCNC(=O)N(CCCN(C)C)C(=O)C(C)[C@H]1CCC2C3CC[C@H]4CC(NCCNC)CC[C@]4(C)C3CC[C@@]21C (stereo partly drawn) [MSI-2500] | 0 |  |  |
| CCN(C(=O)NCCCN(C)C)C(=O)C(C)[C@H]1CCC2C3CC[C@H]4CC(NCCNC)CC[C@]4(C)C3CC[C@@]21C (stereo partly drawn) [MSI-2501] | 0 |  |  |
| CC(C)CCC[C@@H](C)[C@H]1CCC2C3C[C@@H](O)[C@H]4C[C@@H](NCCN)CC[C@]4(C)C3CC[C@@]21C (stereo partly drawn) [MSI-2502] | 0 |  |  |
| CC(C)CCC[C@@H](C)[C@H]1CCC2C3C[C@@H](O)[C@H]4C[C@H](NCCCN)CC[C@]4(C)C3CC[C@@]21C (stereo partly drawn) [MSI-2504] | 43 | 22 |  |
| CC(C)CCC[C@@H](C)[C@H]1CCC2C3C[C@@H](O)[C@H]4C[C@@H](NCCCN)CC[C@]4(C)C3CC[C@@]21C (stereo partly drawn) [MSI-2505] | 39 |  |  |
| CC(C)CCC[C@@H](C)[C@H]1CCC2C3C[C@@H](O)[C@H]4C[C@H](NCCCNCCCCN)CC[C@]4(C)C3CC[C@@]21C (stereo partly drawn) [MSI-2506] | 60 | 60 |  |
| COC(=O)CC[C@@H](C)[C@H]1CCC2C3C(CC[C@@]21C)[C@@]1(C)CC[C@@H](NCCN2CCCCC2)C[C@H]1C[C@H]3O (stereo partly drawn) [MSI-2507] | 94 | -11 | change in vivo [2]: -45.8%; reduction in AbAUC compared to saline control (significance) [2]: significant reduction; FBG % Change From Saline [3]: −9.4%; % BW Nader [4]: 1.4% |
| COC(=O)CC[C@@H](C)[C@H]1CCC2C3C(CC[C@@]21C)[C@@]1(C)CC[C@@H](NCCCCNCc2cccnc2)C[C@@H]1C[C@H]3O (stereo partly drawn) [MSI-2510] | 72 | 23 | change in vivo [2]: -32.9%; reduction in AbAUC compared to saline control (significance) [2]: significant reduction; FBG % Change From Saline [3]: 12.0%; % BW Nader [4]: 1.6% |
| CC(C)NCCNC1CC[C@]2(C)C3CC[C@@]4(C)C(CC[C@@H]4[C@H](C)CCC(=O)O)C3C[C@@H](O)[C@H]2C1 (stereo partly drawn) [MSI-2515] | 89 | 19 |  |
| CC(C)CCC[C@@H](C)[C@H]1CCC2C3C[C@@H](O)[C@H]4C[C@@H](NCCCNCCCCNCCCN)CC[C@]4(C)C3CC[C@@]21C (stereo partly drawn) [MSI-2516] | 56 | 25 |  |
| CC(C)CCC[C@@H](C)[C@H]1CCC2C3C[C@@H](O)[C@H]4C[C@H](NCCCNCCCCNCCCN)CC[C@]4(C)C3CC[C@@]21C (stereo partly drawn) [MSI-2517] | 51 | 11 |  |
| COC(=O)CC[C@@H](C)[C@H]1CCC2C3C(CC[C@@]21C)[C@@]1(C)CC[C@H](NCCN2CCCCC2)C[C@@H]1C[C@H]3O (stereo partly drawn) [MSI-2518] | 102 | 12 |  |
| COC(=O)CC[C@@H](C)[C@H]1CCC2C3C(CC[C@@]21C)[C@@]1(C)CCC(NCCNC(C)C)C[C@@H]1C[C@H]3O (stereo partly drawn) [MSI-2519] | 102 | 26 |  |
| COC(=O)CC[C@@H](C)[C@H]1CCC2C3CC[C@@H]4C[C@H](NCCNC(C)C)CC[C@]4(C)C3CC[C@@]21C (stereo partly drawn) [MSI-2521] | 103 | 67 |  |
| COC(=O)CC[C@@H](C)[C@H]1CCC2C3CC[C@@H]4C[C@@H](NCCNC(C)C)CC[C@]4(C)C3CC[C@@]21C (stereo partly drawn) [MSI-2522] | 104 | 50 |  |
| COC(=O)CC[C@@H](C)[C@H]1CCC2C3C[C@H](O)[C@@H]4C[C@H](NCCNC(C)C)CC[C@]4(C)C3CC[C@@]21C (stereo partly drawn) [MSI-2523] | 101 | 8 |  |
| COC(=O)CC[C@@H](C)[C@H]1CCC2C3C[C@H](O)[C@@H]4C[C@@H](NCCNC(C)C)CC[C@]4(C)C3CC[C@@]21C (stereo partly drawn) [MSI-2524] | 103 | 15 |  |
| COC(=O)CC[C@@H](C)[C@H]1CCC2C3CC[C@@H]4C[C@@H](NCCNC(C)C)CC[C@]4(C)C3C[C@H](O)[C@@]21C (stereo partly drawn) [MSI-2526] | 104 |  |  |
| COC(=O)CC[C@@H](C)[C@H]1CCC2C3C(CC[C@@]21C)[C@@]1(C)CCC(NCCNC(C)C)C[C@@H]1C[C@H]3NC(=O)OC (stereo partly drawn) [MSI-2528] | 75 | 2 |  |
| COC(=O)CC[C@@H](C)[C@H]1CCC2C3C(CC[C@@]21C)[C@@]1(C)CC[C@@H](NCCNC(C)C)C[C@@H]1C[C@H]3SC (stereo partly drawn) [MSI-2529] | 64 | 4 |  |
| COC(=O)CC[C@@H](C)[C@H]1CCC2C3C(CC[C@@]21C)[C@@]1(C)CCC(NCCNC(C)C)C[C@@H]1C[C@H]3S(C)(=O)=O (stereo partly drawn) [MSI-2530] | 46 | 1 |  |
| COC(=O)CC[C@@H](C)[C@H]1CCC2C3C(CC[C@@]21C)[C@@]1(C)CC[C@H](NCCNC(C)C)C[C@@H]1C[C@H]3S(C)(=O)=O (stereo partly drawn) [MSI-2531] | 48 | 1 |  |
| COC(=O)CC[C@@H](C)[C@H]1CCC2C3C(CC[C@@]21C)[C@@]1(C)CCC(NCCN(C)C)C[C@H]1C[C@H]3O (stereo partly drawn) [MSI-2533] |  | 5 |  |
| COC(=O)CC[C@@H](C)[C@H]1CCC2C3CC[C@@H]4C[C@H](NCCN(C)C)CC[C@]4(C)C3CC[C@@]21C (stereo partly drawn) [MSI-2534] |  | 0 |  |
| COC(=O)CC[C@@H](C)[C@H]1CCC2C3CC[C@@H]4CC(NCCN(C)C)CC[C@]4(C)C3CC[C@@]21C (stereo partly drawn) [MSI-2535] |  | 8 |  |
